Test results reported in PubChem BioAssay (NCI).
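Grown in 96-well plates, cells were treated for 48 hours with each compound at five concentrations. Insufficient inhibition: endpoint recorded as highest concentration tested. TGI: total growth inhibition.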

Key:
Experiment in all cases: growth of human tumour cells (NCI), 48 h
[1] = tested on: A498 renal
[2] = tested on: ACHN renal
[3] = tested on: CAKI-1 renal
[4] = tested on: CCRF-CEM leukemia
[5] = tested on: COLO 205 colon
[6] = tested on: DLD-1 colon
[7] = tested on: DMS 114 small cell lung
[8] = tested on: DMS 273 small cell lung
[9] = tested on: EKVX NSCLC
[10] = tested on: HCT-15 colon
[11] = tested on: HL-60(TB) leukemia
[12] = tested on: HOP-18 NSCLC
[13] = tested on: HOP-92 NSCLC
[14] = tested on: HT29 colon
[15] = tested on: IGROV1 ovarian
[16] = tested on: K-562 leukemia
[17] = tested on: KM20L2 colon
[18] = tested on: LOX IMVI melanoma
[19] = tested on: LXFL 529 NSCLC
[20] = tested on: M14 melanoma
[21] = tested on: M19-MEL melanoma
[22] = tested on: MALME-3M melanoma
[23] = tested on: MOLT-4 leukemia
[24] = tested on: NCI-H226 lung
[25] = tested on: NCI-H23 lung
[26] = tested on: NCI-H460 lung
[27] = tested on: NCI-H522 lung
[28] = tested on: OVCAR-3 ovarian
[29] = tested on: OVCAR-8 ovarian
[30] = tested on: RPMI-8226 leukemia
[31] = tested on: RXF-631 renal
[32] = tested on: SF-268 CNS
[33] = tested on: SF-295 CNS
[34] = tested on: SF-539 CNS
[35] = tested on: SK-MEL-2 melanoma
[36] = tested on: SK-MEL-28 melanoma
[37] = tested on: SK-MEL-5 melanoma
[38] = tested on: SK-OV-3 ovarian
[39] = tested on: SN12C renal
[40] = tested on: SNB-19 CNS
[41] = tested on: SNB-75 CNS
[42] = tested on: SNB-78 CNS
[43] = tested on: SW-620 colon
[44] = tested on: TK-10 renal
[45] = tested on: U251 CNS
[46] = tested on: UACC-62 melanoma
[47] = tested on: UO-31 renal
[48] = tested on: 786-0 renal
[49] = tested on: A549 NSCLC
[50] = tested on: HCC-2998 colon
[51] = tested on: HCT-116 colon
[52] = tested on: HOP-62 NSCLC
[53] = tested on: KM12 colon
[54] = tested on: OVCAR-4 ovarian
[55] = tested on: OVCAR-5 ovarian
[56] = tested on: SR leukemia
[57] = tested on: UACC-257 melanoma
[58] = tested on: RXF 393 renal
[59] = tested on: XF 498 CNS

SMILES: COc1cc2c(cc1OC)C(Cl)C(c1cc(OC)c(OC)c(OC)c1)=C2Cl (configuration not stated)
- TGI [1]: 61.1 µM
- TGI [2]: 28.8 µM
- TGI [3]: 32.5 µM
- TGI [4]: 40.7 µM
- TGI [5]: 32.9 µM
- TGI [6]: 51.4 µM
- TGI [7]: 26.2 µM
- TGI [8]: 34.6 µM
- TGI [9]: 79.4 µM
- TGI [10]: 49.4 µM
- TGI [11]: 44.3 µM
- TGI [12]: 32.3 µM
- TGI [13]: 27.9 µM
- TGI [14]: 30.3 µM
- TGI [15]: 54.7 µM
- TGI [16]: > 100 µM
- TGI [17]: 36.6 µM
- TGI [18]: 30.2 µM
- TGI [19]: 24.6 µM
- TGI [20]: 35.2 µM
- TGI [21]: 28.7 µM
- TGI [22]: 30.6 µM
- TGI [23]: 29.9 µM
- TGI [24]: 41.4 µM
- TGI [25]: 51.8 µM
- TGI [26]: 32.4 µM
- TGI [27]: 23 µM
- TGI [28]: 31.9 µM
- TGI [29]: 48.7 µM
- TGI [30]: 37 µM
- TGI [31]: 38.2 µM
- TGI [32]: 55.7 µM
- TGI [33]: 29.9 µM
- TGI [34]: 26.7 µM
- TGI [35]: 34.1 µM
- TGI [36]: 31.9 µM
- TGI [37]: 30.5 µM
- TGI [38]: 56.2 µM
- TGI [39]: 36.6 µM
- TGI [40]: 37.2 µM
- TGI [41]: 18.1 µM
- TGI [42]: 46.4 µM
- TGI [43]: 46.1 µM
- TGI [44]: 62.2 µM
- TGI [45]: 33 µM
- TGI [46]: 28.9 µM
- TGI [47]: 27.1 µM

SMILES: COc1cc(Br)c(CC2=NCCc3cc(OC)c(OC)cc32)cc1OC
- TGI [48]: > 100 µM
- TGI [1]: 76.3 µM
- TGI [49]: > 100 µM
- TGI [2]: > 100 µM
- TGI [3]: > 100 µM
- TGI [4]: > 100 µM
- TGI [5]: > 100 µM
- TGI [6]: > 100 µM
- TGI [7]: 68.1 µM
- TGI [8]: 51.3 µM
- TGI [9]: > 100 µM
- TGI [50]: 43.4 µM
- TGI [51]: > 100 µM
- TGI [10]: > 100 µM
- TGI [11]: 38 µM
- TGI [12]: > 100 µM
- TGI [52]: > 100 µM
- TGI [13]: 60.3 µM
- TGI [14]: > 100 µM
- TGI [15]: > 100 µM
- TGI [16]: > 100 µM
- TGI [53]: > 100 µM
- TGI [17]: > 100 µM
- TGI [18]: > 100 µM
- TGI [19]: > 100 µM
- TGI [20]: 65.8 µM
- TGI [21]: > 100 µM
- TGI [22]: > 100 µM
- TGI [23]: 72.5 µM
- TGI [24]: > 100 µM
- TGI [25]: > 100 µM
- TGI [26]: > 100 µM
- TGI [27]: 65.2 µM
- TGI [28]: > 100 µM
- TGI [54]: > 100 µM
- TGI [55]: > 100 µM
- TGI [29]: > 100 µM
- TGI [30]: 73 µM
- TGI [31]: > 100 µM
- TGI [32]: > 100 µM
- TGI [33]: > 100 µM
- TGI [34]: 87 µM
- TGI [35]: > 100 µM
- TGI [36]: > 100 µM
- TGI [37]: 36 µM
- TGI [38]: > 100 µM
- TGI [39]: > 100 µM
- TGI [40]: > 100 µM
- TGI [41]: > 100 µM
- TGI [56]: > 100 µM
- TGI [43]: > 100 µM
- TGI [44]: > 100 µM
- TGI [45]: > 100 µM
- TGI [57]: 70.6 µM
- TGI [46]: > 100 µM
- TGI [47]: 95.1 µM

SMILES: COc1ccc(NC(=O)C(=O)C2NC(=S)NC2=O)c(OC)c1 (configuration not stated)
- TGI [48]: > 100 µM
- TGI [1]: > 100 µM
- TGI [49]: > 100 µM
- TGI [2]: > 100 µM
- TGI [5]: > 100 µM
- TGI [6]: > 100 µM
- TGI [7]: > 100 µM
- TGI [8]: > 100 µM
- TGI [9]: > 100 µM
- TGI [50]: > 100 µM
- TGI [51]: > 100 µM
- TGI [10]: > 100 µM
- TGI [11]: > 100 µM
- TGI [52]: > 100 µM
- TGI [13]: > 100 µM
- TGI [14]: > 100 µM
- TGI [15]: > 100 µM
- TGI [16]: > 100 µM
- TGI [53]: > 100 µM
- TGI [17]: > 100 µM
- TGI [18]: > 100 µM
- TGI [19]: > 100 µM
- TGI [20]: > 100 µM
- TGI [21]: > 100 µM
- TGI [22]: > 100 µM
- TGI [23]: > 100 µM
- TGI [24]: > 100 µM
- TGI [25]: > 100 µM
- TGI [26]: > 100 µM
- TGI [28]: > 100 µM
- TGI [54]: > 100 µM
- TGI [29]: > 100 µM
- TGI [30]: > 100 µM
- TGI [58]: > 100 µM
- TGI [31]: > 100 µM
- TGI [32]: > 100 µM
- TGI [33]: > 100 µM
- TGI [34]: > 100 µM
- TGI [35]: > 100 µM
- TGI [36]: > 100 µM
- TGI [38]: > 100 µM
- TGI [39]: > 100 µM
- TGI [40]: > 100 µM
- TGI [41]: > 100 µM
- TGI [42]: > 100 µM
- TGI [43]: > 100 µM
- TGI [44]: > 100 µM
- TGI [45]: > 100 µM
- TGI [57]: > 100 µM
- TGI [46]: > 100 µM
- TGI [47]: > 100 µM

SMILES: CCCCCCCCCC(=O)CC(=O)c1c(O)cccc1O
- TGI [48]: 35.3 µM
- TGI [49]: 96.1 µM
- TGI [2]: 83.4 µM
- TGI [3]: > 100 µM
- TGI [4]: 61 µM
- TGI [5]: 35.8 µM
- TGI [6]: > 100 µM
- TGI [7]: 89.5 µM
- TGI [8]: 39.1 µM
- TGI [9]: 86.9 µM
- TGI [50]: > 100 µM
- TGI [51]: > 100 µM
- TGI [11]: 45.3 µM
- TGI [12]: 93.6 µM
- TGI [52]: > 100 µM
- TGI [14]: 65.8 µM
- TGI [15]: > 100 µM
- TGI [16]: 86 µM
- TGI [53]: > 100 µM
- TGI [17]: > 100 µM
- TGI [18]: 49.6 µM
- TGI [19]: > 100 µM
- TGI [20]: 72.1 µM
- TGI [21]: > 100 µM
- TGI [22]: 74.4 µM
- TGI [23]: > 100 µM
- TGI [24]: 70.2 µM
- TGI [25]: > 100 µM
- TGI [26]: > 100 µM
- TGI [27]: 89.7 µM
- TGI [28]: 80.9 µM
- TGI [54]: > 100 µM
- TGI [55]: 64 µM
- TGI [29]: > 100 µM
- TGI [30]: 61.2 µM
- TGI [58]: 72.1 µM
- TGI [32]: > 100 µM
- TGI [33]: 98.2 µM
- TGI [34]: > 100 µM
- TGI [35]: 67 µM
- TGI [36]: > 100 µM
- TGI [38]: 64.1 µM
- TGI [39]: 53.4 µM
- TGI [40]: > 100 µM
- TGI [41]: 99.7 µM
- TGI [42]: > 100 µM
- TGI [43]: 83.2 µM
- TGI [44]: > 100 µM
- TGI [45]: 69.3 µM
- TGI [57]: > 100 µM
- TGI [46]: > 100 µM
- TGI [47]: > 100 µM
- TGI [59]: 40 µM
